Key:
[1] = system: Human keratinocytes (NHEK-Neo Pooled); experiment: Human keratinocyte growth inhibition assay; format: cell-based; details: 48 h, culture for 2 days, Cell Counting Kit-8
How it was run: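 Neonatal pooled NHEK were seeded at 2.0×10^3 cells/well, cultured overnight, then exposed to compound in 0.1% final DMSO for 2 days. Growth was read by CCK-8 absorbance. IC50 was calculated from the concentration–inhibition data.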

[2] = system: IL-6 production in rat adjuvant arthritis model; experiment: IL-6 production inhibition test in rat adjuvant arthritis model; format: in vivo, LEW rats; details: single dose, left ankle, read-out: rate of inhibition of IL-6 production; for inhibition in vivo at 3 mg/kg: administration of 3 mg/kg
Protocol: IL-6 Production Inhibition Test in Rat Adjuvant Arthritis Model
A single-dose drug efficacy test using rat adjuvant arthritis models was carried out by modifying the method of Magari. K et al. (J. Rheumatol. 30 (10), 2193 (2003)).
LEW rats (female, supplied by Charles River Laboratories Japan, Inc.) were used as laboratory animals. An adjuvant prepared from heat-killed bacteria of Mycobacterium butyricum (264010 manufactured by Difco Laboratories Ltd.) and liquid paraffin (manufactured by Wako Pure Chemical Industries, Ltd., Code No. 128-04375) was subcutaneously administered as a phlogogenic material to the right hind leg footpads of the rats under inhalation anesthesia with isoflurane (manufactured by Wako Pure Chemical Industries, Ltd., Code No. 099-06571) to prepare arthritis models. Approximately 2 weeks later, left paw edema was measured with a paw volume meter (model TK-101CMP manufactured by Unicorn Co., Ltd.), and grouping was performed such that the average volume of left paw edema was equal among groups. A test compound or only a solvent was administered, after a certain time, they were sacrificed by exsanguination from the abdomens under isoflurane anesthesia, and the left ankles were collected, chopped, and frozen by using liquid nitrogen. The collected left ankle portions were disrupted in CRYOPress (model CP-100WP manufactured by Microtec Co., Ltd.), then supplemented with a buffer solution, shaken overnight at 4° C., and then centrifuged to collected a supernatant. The preparation of the buffer solution was performed by mixing a Tris buffer solution (pH 7.4), sodium chloride (NaCl), phenyl methyl sulfonyl fluoride (PMSF), Triton X-100, EDTA-free complete tablets (manufactured by F. Hoffmann-La Roche, Ltd., REF. 11 873 580 001), and Otsuka distilled water (manufactured by Otsuka Pharmaceutical Co., Ltd., product No. 1323). IL-6 in the collected supernatant was measured by using a sandwich ELISA kit (manufactured by R&D Systems, Inc., Catalog No. S6050).
The IL-6 content of each sample was calculated from the calibration curve of Standard IL-6 included in the kit. When the amount of IL-6 produced in the solvent administration control group was defined as 100%, the rate of inhibition of IL-6 production (%) at each dose of the test compound was calculated.

[3] = system: human breast cancer cell line (MCF-7); experiment: Human breast cancer (MCF-7) cell growth inhibition test; format: cell-based; details: MCF7, 72 h, MCF-7, culture for 3 days, sulforhodamine B absorbance
Protocol: Human Breast Cancer (MCF-7) Cell Growth Inhibition Test
The measurement of a human breast cancer cell growth inhibitory effect was carried out by modifying the method of Simak et al. (Cancer Research, 69, 6208 (2009)).
A human breast cancer cell line (MCF-7) manufactured by DS Pharma Biomedical Co., Ltd., Cat. No. EC86012803, was cultured in MEM (manufactured by GIBCO/Thermo Fisher Scientific, Inc., REF. 11095-080) medium containing 10% FBS (manufactured by GIBCO/Thermo Fisher Scientific, Inc., REF. 10082-147), nonessential amino acids (manufactured by GIBCO/Thermo Fisher Scientific, Inc., REF. 11140-050), and 1% penicillin/streptomycin/amphotericin B (manufactured by GIBCO/Thermo Fisher Scientific, Inc., REF. 15240-096) and inoculated at 3.0×10^3 cells/well to a 96-well plate (manufactured by Corning Inc., REF. 353072). After overnight culture in a carbon dioxide incubator, it was replaced with a fresh MEM medium containing 10% FBS, nonessential amino acids, and 1% penicillin/streptomycin/amphotericin B on the next day, and a test compound dissolved in DMSO (manufactured by Wako Pure Chemical Industries, Ltd., Code No. 043-07216) (final DMSO concentration: 0.1%) was added and left standing in a carbon dioxide incubator. After culture for 3 days, the absorbance of each well was measured by using In Vitro Toxicology Assay Kit Sulforhodamine B based (manufactured by Sigma-Aldrich Co. LLC., Pcode 1001910706).
The rate of inhibition of cell growth at each concentration was calculated from the test compound concentration and the absorbance of sulforhodamine B, and the concentration of the test compound necessary for inhibiting 50% of cell growth (IC50 value) was calculated by using EXSUS (version 8.0.0 or version 8.0.1, manufactured by CAC Exicare Corp.).

IC50 [3] [nM] | SMILES | IC50 [1] [nM] | inhibition in vivo at 3 mg/kg [2] [%] | inhibition in vivo at 10 mg/kg ([2]; administration of 10 mg/kg) [%]
 | CC(C)(O)C[C@@H](NC(=O)N1Cc2c(NC(=O)C3([Si](C)(C)C)CCC3)n[nH]c2C1(C)C)c1ccccc1 [IV-299, (R)—N-(3-Hydroxy-3-methyl-1-phenylbutyl)-6,6-dimethyl-3-[1-(trimethylsilyl)cyclobutanecarboxamido]-4,6-dihydropyrrolo[3,4-c]pyrazole-5(1H)-carboxamide] | ≤ 500 | ≥ 50 | 
≤ 500 | CC1(C)c2[nH]nc(NC(=O)C3([Si](C)(C)C)CCC3)c2CN1C(=O)N[C@H](CCO)c1ccccc1 [IV-227, (R)—N-(3-Hydroxy-1-phenylpropyl)-6,6-dimethyl-3-[1-(trimethylsilyl)cyclobutanecarboxamido]-4,6-dihydropyrrolo[3,4-c]pyrazole-5(1H)-carboxamide] | ≤ 500 | ≥ 50 | 
≤ 500 | CC(C)(O)[C@@H](NC(=O)N1Cc2c(NC(=O)C3([Si](C)(C)C)CCC3)n[nH]c2C1(C)C)c1ccccc1 [IV-171, (S)—N-(2-Hydroxy-2-methyl-1-phenylpropyl)-6,6-dimethyl-3-[1-(trimethylsilyl)cyclobutanecarboxamido]-4,6-dihydropyrrolo[3,4-c]pyrazole-5(1H)-carboxamide] | ≤ 500 |  | ≥ 50
≤ 500 | COC[C@@H](NC(=O)N1Cc2c(NC(=O)C3([Si](C)(C)C)CCC3)n[nH]c2C1(C)C)c1ccccc1 [IV-123, (S)—N-(2-Methoxy-1-phenylethyl)-6,6-dimethyl-3-[1-(trimethylsilyl)cyclobutanecarboxamido]-4,6-dihydropyrrolo[3,4-c]pyrazole-5(1H)-carboxamide] | ≤ 500 | ≥ 50 | 

— patent US10131679B2, “Substituted dihydropyrrolopyrazole compound” (UBE INDUSTRIES, LTD., priority 2014, dated 2018)
